Measurements as given in patent publication US5106873A, “ACAT inhibitors” (priority 1990, dated 1992).

Columns and labels:
[1] = biological target: T1, acyl-CoA: cholesterol acyltransferase (ACAT) (Oryctolagus cuniculus, UniProt G1SFD9); test: In vitro inhibition of ACAT (acylation of cholesterol by oleic acid) in rabbit intestinal microsomes; type: biochemical; details: radiolabeled oleic acid
T1 construct: tissue preparation containing rabbit intestinal microsomes; from tissue; host or cells: rabbit intestinal microsomes
T1 sequence (G1SFD9 1-524): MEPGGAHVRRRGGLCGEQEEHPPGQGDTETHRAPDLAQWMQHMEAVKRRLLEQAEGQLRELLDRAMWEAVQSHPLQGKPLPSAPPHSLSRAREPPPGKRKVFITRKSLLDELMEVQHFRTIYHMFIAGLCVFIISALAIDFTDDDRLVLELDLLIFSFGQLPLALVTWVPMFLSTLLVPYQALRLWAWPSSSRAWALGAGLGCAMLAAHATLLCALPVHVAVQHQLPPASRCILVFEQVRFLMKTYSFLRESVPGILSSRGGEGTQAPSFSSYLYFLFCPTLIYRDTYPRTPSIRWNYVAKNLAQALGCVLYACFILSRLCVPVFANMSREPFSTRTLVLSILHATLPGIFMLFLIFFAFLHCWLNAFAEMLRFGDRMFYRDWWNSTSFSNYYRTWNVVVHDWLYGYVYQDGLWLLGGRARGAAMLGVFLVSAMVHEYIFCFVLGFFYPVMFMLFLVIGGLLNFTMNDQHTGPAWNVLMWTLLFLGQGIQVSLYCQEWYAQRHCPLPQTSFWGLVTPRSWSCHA
Description: The ability of representative compounds of the present invention to inhibit ACAT was measured using an in vitro test more fully described in Field, F. J. and Salone, R. G., Biochemica et Biophysica, 712:557-570 (1982). The test assesses the ability of a test compound to inhibit the acylation of cholesterol by oleic acid by measuring the amount of radiolabeled cholesterol […] formed from radiolabeled oleic acid in a tissue preparation containing rabbit intestinal microsomes. The data appear in Table 1 where they are expressed in IC50 values; i.e., the concentration of test compound required to inhibit 50% expression of the enzyme.

[2] = In vivo screen designated APCC, cholesterol in rats fed PCC diet with cholic acid; design: species or system male Sprague-Dawley rats; details: blood cholesterol; PCC diet with 1% or 0.5% cholic acid; dosed at 4 PM, sacrificed at 8 AM; dose not stated
From the text: In one in vivo screen designated APCC, male Sprague-Dawley rats (200 to 225 g) were randomly divided into treatment groups and dosed at 4 PM with either vehicle (CMC/Tween) or suspensions of compounds in vehicle. The normal, chow diet was then replaced with the PCC diet with either 1% or 0.5% cholic acid, as indicated. The rats consumed this diet ad libitum during the night and were sacrificed at 8 AM to obtain blood samples for cholesterol analysis using standard procedures. Statistical differences between mean cholesterol values for the same vehicle were determined using analysis of variance followed by Fisher's least significant test.

IC50 [1] | Compound | % Change [2]
96 nM | CCCC(CCC)(CNC(=O)Nc1c(C(C)C)cccc1C(C)C)NC(=O)c1ccc(OC)cc1 [Example 4] | 
510 nM | COc1ccc(C(=O)NC2(CNC(=O)Nc3c(C(C)C)cccc3C(C)C)CCCC2)cc1 [Example 5, N-[1-[[[[[2,6-bis(1-methylethyl)phenyl]amino]carbonyl]amino]methyl]cyclopentyl]-4-methoxybenzamide] | 
57 nM | COc1ccc(CN[C@H](CNC(=O)Nc2c(C(C)C)cccc2C(C)C)CC(C)C)cc1 [Example 6, (S)-(-)-N-[2,6-bis(1-methylethyl)phenyl]-N'-[2-[[(4-methoxyphenyl)methyl]amino]-4-methyl-pentyl]urea] | -25%
 | COc1ccc(CN[C@@H](CCSC)CNC(=O)Nc2c(C(C)C)cccc2C(C)C)cc1 [Example 7, (S)-(-)-N-[2,6-Bis(1-methylethyl)phenyl]-N'-[2-[[(4-methoxyphenyl)methyl]amino]-4-(methylthio)butyl]urea] | -31%
85 nM | COc1ccc(CN[C@H](CNC(=O)Nc2c(C(C)C)cccc2C(C)C)C(C)C)cc1 [Example 8, (S)-(-)-N[2,6-Bis(1-methylethyl)phenyl]-N'-[2-[[(4-methoxyphenyl]methyl]amino]-3-methylbutyl]urea] | -17%
 | COc1ccc(CN[C@H](CNC(=O)Nc2c(C(C)C)cccc2C(C)C)Cc2ccccc2)cc1 [Example 9, (S)-(-)-N-[2,6-Bis(1-methylethyl)phenyl]-N'-[2-[[(4-methoxyphenyl)methyl]amino]-3-phenylpropyl]urea] | -33%
 | CC(C)c1cccc(C(C)C)c1NC(=O)NC[C@H](Cc1ccccc1)NCc1ccccc1O [Example 10] | -46%
